Key:
[1] = Particle size and PDI of LNP preparation by dynamic light scattering (Malvern Zetasizer Ultra); type: physicochemical
[2] = Encapsulation efficiency of LNP (Quant-it Ribogreen RNA quantitative assay kit); type: physicochemical
female Balb/C mice [3] = assay: In-vivo bioluminescence (overall luminescence intensity, AUC) after tail vein injection of Fluc mRNA LNP; details: 5 μg/mouse, liver site, Table 3 LNP
female Balb/C mice [4] = assay: In-vivo bioluminescence at lower limb administration site after intramuscular injection of Fluc mRNA LNP; details: 5 μg/mouse, Table 3 LNP
Protocol: In this example, LQ104-1 to LQ104-8 (encapsulating Fluc mRNA) from Example 1 were injected via tail vein into female Balb/C mice (Viton Lihua) aged 6 to 8 weeks at a dose of 5 μg/mouse (n=3, i.e. 3 mice were used for injection and testing in each group, and the data results presented were the mean measurements of each group). […] potassium salt was intraperitoneally injected at specific time points after administration (in this example, 6th hour, 24th hour, and 48th hour), and then the luminescence was detected by an IVIS Spectrum small animal living imager instrument (manufacturer: PerkinElmer). The overall luminescence intensity of live expression sites (such as the liver) in mice was counted. […] The overall luminescence intensity was the luminescence intensity data, measured by bioluminescence imaging, of the luminescent site obtained 6 to 15 minutes (min) after intraperitoneal injection of […] potassium salt. The overall luminescence intensity of the in vivo expression area was counted by using Living Image software (manufacturer: PerkinElmer), furthermore, an area under the curve (AUC, unit: p/s*hour) was calculated by using GraphPad software, and the AUC in each example of the present application is the area under the curve of a line connecting measurement points of the overall luminescence intensity from the 4th or 6th hour after drug administration (using the experimental method of the present application, peak values are the same from 3-6 hours after drug administration) to the 48th hour after drug administration. Test results were shown in FIG. 3 and FIG. 4A, as well as Table 2.
Furthermore, referring to the mouse in-vivo experimental method of Example 3, each group of LNP preparations in this example was injected into female Balb/C mice aged 6 to 8 weeks through tail vein injection or intramuscular injection of the lower limbs at a dose of 5 μg/mouse. The overall luminescence intensity of the liver or lower limb administration site was counted, and the test results were shown in FIG. 5A to FIG. 5D and Table 4A to Table 4D). […]

[5] = Surface potential of LNP preparation (Malvern Zetasizer Ultra); type: physicochemical; details: Table 3; LNP 40:11:47.4:1.6, N/P 8:1
Protocol: (§1) In this example, the ionizable lipids prepared from Preparation Example 3 to Preparation Example 17 were selected. Following the same method as in Example 1, an LNP preparation (encapsulating Fluc mRNA) was prepared according to a molar ratio and a nitrogen-to-phosphorus ratio shown in Table 3. Malvern Zetasizer Ultra was used to measure a particle size, a PDI, and a surface potential of each LNP preparation; a Quant-it Ribogreen RNA quantification assay kit (manufacturer: ThermoFisher Scientific, item number: R11490) was used to measure encapsulation efficiency of LNP; and a dye binding test of 6-(p-Toluidino)-2-naphthalene sulfonic acid sodium salt (TNS, purchased from Nanjing Xize Pharmaceutical Technology Co., Ltd., item number: XZ0743) was used to measure pKa of the LNP.

[6] = pKa of LNP by TNS dye binding test; type: physicochemical; details: Table 3, pKa of the LNP, 40:11:47.4:1.6, N/P 8:1
Protocol: as §1

female Balb/C mice [7] = assay: Total Spike antibody titer in serum (ELISA) after intramuscular injection of Spike mRNA LNP; type: in vivo; details: 2 μg/mouse, second injection on 21st day, serum 7th day after second administration, n=8, compared with PBS
[8] = Table 3, LNP 40:11:47.4:1.6, N/P 8:1
[9] = Table 3, LNP lipid:DSPC:cholesterol:DMG-PEG = 40:11:47.4:1.6, nitrogen-to-phosphorus ratio 8:1, Fluc mRNA
[10] = Table 1, Example 1 LNP preparations

## CCCCCCCCCC(CCCCCCC)OC(=O)CCCCCCN(CCO)CCN(CCO)CCCCCCC(=O)OC(CCCCCCC)CCCCCCCCC (stereo not drawn) [LQ104-E18b-3]
[1]; [8]
  PDI: 0.063
[1]; [9]
  Particle size (nm): 90.39 nm
[2]; [8]
  Encapsulation efficiency (%): 97.4%
Female Balb/C mice [3]; Table 4B (FIG. 5B)
  AUC (p/s*hour): 1.06E+11 p/s*hour
Female Balb/C mice [4]; Table 4D (FIG. 5D)
  AUC (p/s*hour): 4.80E+09 p/s*hour
[5]
  Surface potential (mV): −2.466 mV
[6]
  pKa: 7.039

## CCCCCCCCCC(CCCCCCCCC)OC(=O)CCCN(CCO)CCN(CCO)CCCC(=O)OC(CCCCCCCCC)CCCCCCCCC [LQ104-E15b-3]
[1]; [8]
  PDI: 0.083
[1]; [9]
  Particle size (nm): 52.80 nm
[2]; [8]
  Encapsulation efficiency (%): 96.0%
[5]
  Surface potential (mV): −10.70 mV
[6]
  pKa: 6.161

## CCCCCCCC(CCCCCCC)OC(=O)CCCCCCN(CCO)CCN(CCO)CCCCCCC(=O)OC(CCCCCCC)CCCCCCC [LQ104-E16b-1]
[1]; [8]
  PDI: 0.044
[1]; [9]
  Particle size (nm): 84.84 nm
[2]; [8]
  Encapsulation efficiency (%): 97.2%
Female Balb/C mice [3]; Table 4A (FIG. 5A)
  AUC (p/s*hour): 2.74E+10 p/s*hour
Female Balb/C mice [4]; Table 4C (FIG. 5C)
  AUC (p/s*hour): 2.30E+09 p/s*hour
[5]
  Surface potential (mV): −3.35 mV
[6]
  pKa: 7.109

## CCCCCCCCC(CCCCCC)OC(=O)CCCCCCN(CCO)CCN(CCO)CCCCCCC(=O)OC(CCCCCC)CCCCCCCC (stereo not drawn) [LQ104-E17b-3]
[1]; [8]
  PDI: 0.058
[1]; [9]
  Particle size (nm): 85.57 nm
[2]; [8]
  Encapsulation efficiency (%): 97.4%
Female Balb/C mice [3]; Table 4B (FIG. 5B)
  AUC (p/s*hour): 9.91E+10 p/s*hour
Female Balb/C mice [4]; Table 4D (FIG. 5D)
  AUC (p/s*hour): 3.82E+09 p/s*hour
[5]
  Surface potential (mV): −2.788 mV
[6]
  pKa: 7.15

## CCCCCCCCC(CCCCCC)C(=O)OCCCCCCN(CCO)CCN(CCO)CCCCCCOC(=O)C(CCCCCC)CCCCCCCC (stereo not drawn) [LQ104-E17b-3R]
[1]; [8]
  PDI: 0.087
[1]; [9]
  Particle size (nm): 77.34 nm
[2]; [8]
  Encapsulation efficiency (%): 97.4%
Female Balb/C mice [3]; Table 4B (FIG. 5B)
  AUC (p/s*hour): 6.33E+09 p/s*hour
Female Balb/C mice [4]; Table 4D (FIG. 5D)
  AUC (p/s*hour): 1.47E+09 p/s*hour
[5]
  Surface potential (mV): −2.203 mV
[6]
  pKa: 7.153

## CCCCCCCCCCCOC(=O)CCCCCN(CCCCCCCC(=O)OC(CCCCCCCC)CCCCCCCC)CCOC(=O)CC(=O)OCCN(CCCCCCCC(=O)OC(CCCCCCCC)CCCCCCCC)CCCCCC(=O)OCCCCCCCCCCC [LQ107]
[1]; [10]
  PDI: 0.025
[1]; Table 1, Example 1 LNP preparations (ionizable lipid:DSPC:cholesterol:DMG-PEG)
  Particle size (nm): 83.56 nm
[2]; [10]
  Encapsulation efficiency (%): 83.7%
Female Balb/C mice [7]
  total Spike protein antibody titer: did not increase

## CCCCCCCC(CCCCCCC)OC(=O)CCCCCN(CCO)CCN(CCO)CCCCCC(=O)OC(CCCCCCC)CCCCCCC [LQ104-E15b-1]
[1]; [8]
  PDI: 0.059
[1]; [9]
  Particle size (nm): 71.08 nm
[2]; [8]
  Encapsulation efficiency (%): 98.1%
Female Balb/C mice [3]; Table 4A (FIG. 5A)
  AUC (p/s*hour): 2.26E+10 p/s*hour
Female Balb/C mice [4]; Table 4C (FIG. 5C)
  AUC (p/s*hour): 5.58E+09 p/s*hour
[5]
  Surface potential (mV): −4.22 mV
[6]
  pKa: 6.754

## CCCCCCCCC(CCCCCC)OC(=O)CCCCCN(CCO)CCN(CCO)CCCCCC(=O)OC(CCCCCC)CCCCCCCC (stereo not drawn) [LQ104-E16b-3]
[1]; [8]
  PDI: 0.091
[1]; [9]
  Particle size (nm): 78.35 nm
[2]; [8]
  Encapsulation efficiency (%): 97.6%
Female Balb/C mice [3]; Table 4A (FIG. 5A)
  AUC (p/s*hour): 1.95E+10 p/s*hour
Female Balb/C mice [4]; Table 4C (FIG. 5C)
  AUC (p/s*hour): 2.10E+09 p/s*hour
[5]
  Surface potential (mV): −5.94 mV
[6]
  pKa: 6.773

## CCCCCCCCC(CCCCCC)C(=O)OCCCCCCCN(CCO)CCN(CCO)CCCCCCCOC(=O)C(CCCCCC)CCCCCCCC (stereo not drawn) [LQ104-E18b-2R]
[1]; [8]
  PDI: 0.081
[1]; [9]
  Particle size (nm): 80.10 nm
[2]; [8]
  Encapsulation efficiency (%): 97.4%
Female Balb/C mice [3]; Table 4B (FIG. 5B)
  AUC (p/s*hour): 1.01E+10 p/s*hour
Female Balb/C mice [4]; Table 4D (FIG. 5D)
  AUC (p/s*hour): 1.73E+09 p/s*hour
[5]
  Surface potential (mV): −2.013 mV
[6]
  pKa: 7.033

## CCCCCCCCC(CCCCCCCC)OC(=O)CCCCCCN(CCO)CCN(CCO)CCCCCCC(=O)OC(CCCCCCCC)CCCCCCCC [LQ104-E17b-2]
[1]; [8]
  PDI: 0.045
[1]; [9]
  Particle size (nm): 74.14 nm
[2]; [8]
  Encapsulation efficiency (%): 97.4%
Female Balb/C mice [3]; Table 4B (FIG. 5B)
  AUC (p/s*hour): 5.58E+10 p/s*hour
Female Balb/C mice [4]; Table 4D (FIG. 5D)
  AUC (p/s*hour): 2.49E+09 p/s*hour
[5]
  Surface potential (mV): −1.852 mV
[6]
  pKa: 6.852

## CCCCCCCCC(CCCCCCCC)OC(=O)CCCCN(CCO)CCN(CCO)CCCCC(=O)OC(CCCCCCCC)CCCCCCCC [LQ104-E15b-2]
[1]; [8]
  PDI: 0.059
[1]; [9]
  Particle size (nm): 56.47 nm
[2]; [8]
  Encapsulation efficiency (%): 96.8%
[5]
  Surface potential (mV): −6.81 mV
[6]
  pKa: 6.470

## CCCCCCCCC(CCCCCCCC)OC(=O)CCCCCN(CCO)CCN(CCO)CCCCCC(=O)OC(CCCCCCCC)CCCCCCCC [LQ104-E16b-2]
[1]; [8]
  PDI: 0.098
[1]; [9]
  Particle size (nm): 75.44 nm
[2]; [8]
  Encapsulation efficiency (%): 97.9%
Female Balb/C mice [3]; Table 4A (FIG. 5A)
  AUC (p/s*hour): 8.98E+10 p/s*hour
Female Balb/C mice [4]; Table 4C (FIG. 5C)
  AUC (p/s*hour): 3.50E+09 p/s*hour
[5]
  Surface potential (mV): −4.38 mV
[6]
  pKa: 6.761

## CCCCCCCC(CCCCCCC)OC(=O)CCCCCCCN(CCO)CCN(CCO)CCCCCCCC(=O)OC(CCCCCCC)CCCCCCC [LQ104-E17b-1]
[1]; [8]
  PDI: 0.082
[1]; [9]
  Particle size (nm): 85.67 nm
[2]; [8]
  Encapsulation efficiency (%): 96.9%
Female Balb/C mice [3]; Table 4B (FIG. 5B)
  AUC (p/s*hour): 3.16E+10 p/s*hour
Female Balb/C mice [4]; Table 4D (FIG. 5D)
  AUC (p/s*hour): 2.66E+09 p/s*hour
[5]
  Surface potential (mV): −1.066 mV
[6]
  pKa: 7.19

## CCCCCCCCCC(CCCCCCC)OC(=O)CCCCCN(CCO)CCN(CCO)CCCCCC(=O)OC(CCCCCCC)CCCCCCCCC (stereo not drawn) [LQ104-E17b-4]
[1]; [8]
  PDI: 0.061
[1]; [9]
  Particle size (nm): 72.30 nm
[2]; [8]
  Encapsulation efficiency (%): 98.0%
Female Balb/C mice [3]; Table 4B (FIG. 5B)
  AUC (p/s*hour): 7.68E+10 p/s*hour
Female Balb/C mice [4]; Table 4D (FIG. 5D)
  AUC (p/s*hour): 2.86E+09 p/s*hour
[5]
  Surface potential (mV): −3.406 mV
[6]
  pKa: 6.469

## CCCCCCCCC(CCCCCC)C(=O)OCCCCCN(CCO)CCN(CCO)CCCCCOC(=O)C(CCCCCC)CCCCCCCC (stereo not drawn) [LQ104-E16b-3R]
[1]; [8]
  PDI: 0.088
[1]; [9]
  Particle size (nm): 89.68 nm
[2]; [8]
  Encapsulation efficiency (%): 96.8%
Female Balb/C mice [3]; Table 4A (FIG. 5A)
  AUC (p/s*hour): 1.47E+10 p/s*hour
Female Balb/C mice [4]; Table 4C (FIG. 5C)
  AUC (p/s*hour): 2.19E+09 p/s*hour
[5]
  Surface potential (mV): −4.59 mV
[6]
  pKa: 6.802

## CCCCCCCCC(CCCCCC)OC(=O)CCCCCCCN(CCO)CCN(CCO)CCCCCCCC(=O)OC(CCCCCC)CCCCCCCC (stereo not drawn) [LQ104-E18b-2]
[1]; [8]
  PDI: 0.084
[1]; [9]
  Particle size (nm): 84.46 nm
[2]; [8]
  Encapsulation efficiency (%): 97.5%
Female Balb/C mice [3]; Table 4B (FIG. 5B)
  AUC (p/s*hour): 5.32E+10 p/s*hour
Female Balb/C mice [4]; Table 4D (FIG. 5D)
  AUC (p/s*hour): 3.06E+09 p/s*hour
[5]
  Surface potential (mV): −1.109 mV
[6]
  pKa: 7.262

Source: US20250353809A1, “NITROGEN-CONTAINING CHAIN COMPOUND, PREPARATION METHOD, COMPOSITION CONTAINING SAID COMPOUND, AND USE THEREOF” (SHANGHAI RNACURE BIOPHARMA CO., LTD., priority 2022, published 2025)
